From patent US20110288101A1, “SURGICAL CO[…]-RECEPTOR AGONISTS” (ALCON RESEARCH, LTD., priority 2010, published 2011)

Test system: rabbit corneal endothelial cells
Experiment: MTS cell viability assay, protection against hydrogen peroxide oxidative stress
Type: cell-based
Conditions: rabbit corneal endothelial cells in serum-free medium; 70 μM H2O2; 24 hours; 1 to 300 μM (+)-pentazocine; p<0.05 vs H2O2 control; FIG. 1
Protocol: Studies were performed to determine whether (+)-pentazocine can protect corneal endothelial cells. Hydrogen peroxide was employed to produce oxidative stress to rabbit corneal endothelial cells in vitro.
Briefly, rabbit corneal endothelial cells maintained in serum-free medium were treated with the sigma-1 receptor agonist (+)-pentazocine and 70 μM H2O2 for 24 hours. At the end point, a cell viability assay (MTS assay) is performed. The MTS assay is a laboratory test and standard colorimetric assay for measuring the activity of enzymes that reduce MTS+PMS to formazan, producing a purple color. MTS (3-(4,5-dimethylthiazol-2-yl)-5-(3-carboxymethoxyphenyl)-2-(4-sulfophenyl)-2H-tetrazolium), in the presence of phenazine methosulfate (PMS), produces a water-soluble formazan product that has an absorbance maximum at 490-500 nm in phosphate-buffered saline. These reduction reactions take place only when reductase enzymes are active, and the production of formazan product is therefore used as a measure of cell viability.
Lower absorbance numbers correlate to reduced cell viability.

## CC(C)=CCN1CCC2(C)c3cc(O)ccc3CC1C2C (single isomer, unassigned; (+)) [(+)-pentazocine]
  protection of cell viability (MTS absorbance) against damage induced by hydrogen peroxide: dose-dependent protection
